Measurements as given in article PMC8540742, “New N-Substituted-1,2,4-triazole Derivatives of Pyrrolo[3,4-d]pyridazinone with Significant Anti-Inflammatory Activity—Design, Synthesis and Complementary In Vitro, Computational and Spectroscopic Studies” (International Journal of Molecular Sciences, 2021).

Target: T1, bovine serum albumin (BSA) (Bos taurus, UniProt P02769)
T1 construct: gene ALB; commercial native serum albumin (Sigma Aldrich, named for the FT-IR work), mature protein 583 residues, no tags
Assay: intrinsic fluorescence quenching (ex […] nm)
Type: binding
Conditions: […] K, pH […] BSA; static quenching; n about […]; subdomain IIIA by site markers; double-log

T1 sequence (P02769 25-607): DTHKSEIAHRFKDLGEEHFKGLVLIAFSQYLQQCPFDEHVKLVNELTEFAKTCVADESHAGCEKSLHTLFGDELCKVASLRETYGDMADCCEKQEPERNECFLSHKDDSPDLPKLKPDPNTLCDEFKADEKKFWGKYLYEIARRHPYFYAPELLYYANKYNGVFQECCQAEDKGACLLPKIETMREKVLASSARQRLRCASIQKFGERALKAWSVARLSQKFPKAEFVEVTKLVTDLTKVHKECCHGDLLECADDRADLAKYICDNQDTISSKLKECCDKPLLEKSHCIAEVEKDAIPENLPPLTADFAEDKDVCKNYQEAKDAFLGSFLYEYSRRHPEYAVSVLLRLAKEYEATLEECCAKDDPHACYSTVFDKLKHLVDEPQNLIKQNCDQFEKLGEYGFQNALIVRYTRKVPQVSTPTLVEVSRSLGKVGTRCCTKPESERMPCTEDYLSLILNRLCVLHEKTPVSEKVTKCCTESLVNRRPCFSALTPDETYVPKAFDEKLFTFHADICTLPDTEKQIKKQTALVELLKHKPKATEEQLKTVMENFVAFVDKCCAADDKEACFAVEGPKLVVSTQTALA

Structure (SMILES) | Binding / Kb × 10^4 [dm^3mol^-1]
CCCCn1c(C)c2c(OCc3nn(CN4CCN(c5ccccc5)CC4)c(=S)n3C)nn(C)c(=O)c2c1C [4a, 6-butyl-3,5,7-trimethyl-1-[[4-methyl-2-[(4-phenylpiperazin-1-yl)methyl]-3-thioxo-2H-1,2,4-triazol-5-yl]methoxy]pyrrolo[3,4-d]pyridazin-4-one] | 8.91 × 10^4 dm^3 mol^-1
CCCCn1c(C)c2c(OCc3nn(CN4CCN(c5ccccc5)CC4)c(=S)n3-c3ccccc3)nn(C)c(=O)c2c1C [4b, 6-butyl-3,5,7-trimethyl-1-[[4-phenyl-2-[(4-phenylpiperazin-1-yl)methyl]-3-thioxo-2H-1,2,4-triazol-5-yl]methoxy]pyrrolo[3,4-d]pyridazin-4-one] | 6.61 × 10^4 dm^3 mol^-1
CCCCn1c(C)c2c(OCc3nn(CN4CCN(c5cccc(C(F)(F)F)c5)CC4)c(=S)n3C)nn(C)c(=O)c2c1C [5a, 6-butyl-3,5,7-trimethyl-1-[[4-methyl-2-[[4-[3-(trifluoromethyl)phenyl]piperazin-1-yl]methyl]-3-thioxo-2H-1,2,4-triazol-5-yl]methoxy]pyrrolo[3,4-d]pyridazin-4-one] | 8.13 × 10^4 dm^3 mol^-1
CCCCn1c(C)c2c(OCc3nn(CN4CCN(c5cccc(C(F)(F)F)c5)CC4)c(=S)n3-c3ccccc3)nn(C)c(=O)c2c1C [5b, 6-butyl-3,5,7-trimethyl-1-[[4-phenyl-2-[[4-[3-(trifluoromethyl)phenyl]piperazin-1-yl]methyl]-3-thioxo-2H-1,2,4-triazol-5-yl]methoxy]pyrrolo[3,4-d]pyridazin-4-one] | 5.75 × 10^4 dm^3 mol^-1
CCCCn1c(C)c2c(OCc3nn(CN4CCN(c5cccc(C(F)(F)F)c5)CC4)c(=S)n3-c3ccc(OC)cc3)nn(C)c(=O)c2c1C [5c, 6-butyl-1-[[4-(4-methoxyphenyl)-2-[[4-[3-(trifluoromethyl)phenyl]piperazin-1-yl]methyl]-3-thioxo-2H-1,2,4-triazol-5-yl]methoxy]-3,5,7-trimethyl-pyrrolo[3,4-d]pyridazin-4-one] | 9.33 × 10^4 dm^3 mol^-1
CCCCn1c(C)c2c(OCc3nn(CN4CCN(c5ccc(C)cc5)CC4)c(=S)n3C)nn(C)c(=O)c2c1C [6a, 6-butyl-3,5,7-trimethyl-1-[[4-methyl-2-[[4-[(4-methyl)phenyl]piperazin-1-yl]methyl]-3-thioxo-2H-1,2,4-triazol-5-yl]methoxy]pyrrolo[3,4-d]pyridazin-4-one] | 4.90 × 10^4 dm^3 mol^-1
CCCCn1c(C)c2c(OCc3nn(CN4CCN(c5ccc(C)cc5)CC4)c(=S)n3-c3ccccc3)nn(C)c(=O)c2c1C [6b, 6-butyl-3,5,7-trimethyl-1-[[4-phenyl-2-[[4-[(4-methyl)phenyl]piperazin-1-yl]methyl]-3-thioxo-2H-1,2,4-triazol-5-yl]methoxy]pyrrolo[3,4-d]pyridazin-4-one] | 8.13 × 10^4 dm^3 mol^-1
CCCCn1c(C)c2c(OCc3nn(CN4CCN(c5ccc(C)cc5)CC4)c(=S)n3-c3ccc(OC)cc3)nn(C)c(=O)c2c1C [6c, 6-butyl-1-[[4-(4-methoxyphenyl)-2-[[4-[(4-methyl)phenyl]piperazin-1-yl]methyl]-3-thioxo-2H-1,2,4-triazol-5-yl]methoxy]-3,5,7-trimethyl-pyrrolo[3,4-d]pyridazin-4-one] | 9.55 × 10^4 dm^3 mol^-1
CCCCn1c(C)c2c(OCc3nnc(SCC(=O)N4CCN(c5ccccc5)CC4)n3C)nn(C)c(=O)c2c1C [7a, 6-butyl-3,5,7-trimethyl-1-[[4-methyl-3-[2-oxo-2-(4-phenylpiperazin-1-yl)ethyl]sulfanyl-2H-1,2,4-triazol-5-yl]methoxy]pyrrolo[3,4-d]pyridazin-4-one] | 4.68 × 10^4 dm^3 mol^-1
CCCCn1c(C)c2c(OCc3nnc(SCC(=O)N4CCN(c5ccccc5)CC4)n3-c3ccccc3)nn(C)c(=O)c2c1C [7b, 6-butyl-3,5,7-trimethyl-1-[[4-phenyl-3-[2-oxo-2-(4-phenylpiperazin-1-yl)ethyl]sulfanyl-2H-1,2,4-triazol-5-yl]methoxy]pyrrolo[3,4-d]pyridazin-4-one] | 9.33 × 10^4 dm^3 mol^-1
CCCCn1c(C)c2c(OCc3nnc(SCC(=O)N4CCN(c5ccccc5)CC4)n3-c3ccc(OC)cc3)nn(C)c(=O)c2c1C [7c, 6-butyl-3,5,7-trimethyl-1-[[4-(4-methoxy)phenyl-3-[2-oxo-2-(4-phenylpiperazin-1-yl)ethyl]sulfanyl-2H-1,2,4-triazol-5-yl]methoxy]pyrrolo[3,4-d]pyridazin-4-one] | 9.33 × 10^4 dm^3 mol^-1
